Reference: patent US20200325453A1, “METHOD FOR PRODUCING NAÏVE PLURIPOTENT STEM CELLS” (priority 2015, published 2020)

Experiments:
ESRRB [1] = assay: ESRRB gene expression by qPCR, effect of Forskolin and A83-01 on making naïve (Example 4); assay type: cell-based, human; conditions: 201B7 cells; 10 μM Forskolin and 0.5 μM A83-01 added to 2iL+Go6983 medium
ESRRB [2] = assay: ESRRB gene expression by qPCR, effect of Go6983 addition timing (Example 3); assay type: cell-based, human; conditions: 201B7 cells passage 1; KSR 2iLFA medium with Go6983 (5 μM) versus without; doxycycline added; low oxygen
Experimental: The iPS cells gene-introduced and cloned in “1.2 Generation of gene-introduced cell line” were dissociated into single cells by using a dissociation solution and TrypLE™ Select, and seeded in a 6-well plate at 1×10^5 cells/well in which MEF cells had been seeded as feeder. At this time, as a medium, 2iLFA+Go6983 medium shown in Table 1 (hereinafter, also abbreviated as “the medium of the present invention”) was used, and cultured in low oxygen in a state in which doxycycline (1 μg/mL) was further added so as to induce expression of the introduced gene (Passage 1; P1). Note here that on the first day of the start of making naïve, Y27632 (ROCK inhibitor) was added so as to be 10 μM, […]. On day 5 to 7 after the start of making naïve, subculturing was performed. The medium was removed, and then 350 μL of 0.25% Trypsin-EDTA was added in each well to cause reaction for one minute at 37° C. The reaction was stopped by Trypsin Inhibitor, and then 5 mL of medium was added thereto. Pipetting was carried out several times using PIPETTE AID to detach colonies of iPS cells from a sheet of feeder cells. The colonies were collected in a 15-mL tube. After centrifugation, a supernatant was removed, and 200 μL of medium was added, followed by pipetting using P200 […] about 40 times to be dissociated into single cells. […]

Compound | maintenance of the naïve state of iPS cells after stopping induction of expression of the introduced gene (ESRRB [1]) | expression of ESRRB (ESRRB [2])
Cc1cccc(-c2nn(C(=S)Nc3ccccc3)cc2-c2ccnc3ccccc23)n1 [A83-01, 3-(6-methyl-2-pyridinyl)-N-phenyl-4-(4-quinolinyl)-1H-pyrazole-1-carbothioamide] | needed in order to maintain the naïve state of the iPS cells | –
COc1ccc2c(c1)c(C1=C(c3c[nH]c4ccccc34)C(=O)NC1=O)cn2CCCN(C)C [Go6983, 3-[1-[3-(dimethylamino)propyl]-5-methoxy-1H-indole-3-yl]-4-(1H-indole-3-yl)-1H-pyrrole-2,5-dione] | – | higher expression of ESRRB
